According to ChEMBL document CHEMBL4007388, “Synthesis and antiproliferative activity of monocationic arylthiophene derivatives” (Eur J Med Chem, 2017):

Experiments:
MDA-MB-468 = assay: Growth inhibition of human MDA-MB-468 cells incubated for 48 hrs by sulforhodamine B assay; assay type: functional; settings: MDA-MB-468, 48 h
RXF 393 = assay: Growth inhibition of human RXF393 cells incubated for 48 hrs by sulforhodamine B assay; assay type: functional; settings: RXF 393, 48 h
OVCAR-8 = assay: Growth inhibition of human OVCAR8 cells incubated for 48 hrs by sulforhodamine B assay; assay type: functional; settings: OVCAR-8, 48 h
HT-29 = assay: Growth inhibition of human HT-29 cells incubated for 48 hrs by sulforhodamine B assay; assay type: functional; settings: HT-29, 48 h
SK-OV-3 = assay: Growth inhibition of human SKOV3 cells incubated for 48 hrs by sulforhodamine B assay; assay type: functional; settings: SK-OV-3, 48 h
WISH = assay: Cytotoxicity against human WISH cells assessed as reduction in cell viability after 24 hrs by MTT assay; assay type: cell-based
HOP-62 = assay: Growth inhibition of human HOP62 cells incubated for 48 hrs by sulforhodamine B assay; assay type: functional; settings: HOP-62, 48 h
NCI-H23 = assay: Growth inhibition of human NCI-H23 cells incubated for 48 hrs by sulforhodamine B assay; assay type: functional; settings: NCI-H23, 48 h
TK-10 = assay: Growth inhibition of human TK10 cells incubated for 48 hrs by sulforhodamine B assay; assay type: functional; settings: TK-10, 48 h
UACC-257 = assay: Growth inhibition of human UACC257 cells incubated for 48 hrs by sulforhodamine B assay; assay type: functional; settings: UACC-257, 48 h
SR = assay: Growth inhibition of human SR cells incubated for 48 hrs by sulforhodamine B assay; assay type: functional
[1] = Growth inhibition of human NCI60 cells at 10 uM after 48 hrs by SRB assay relative to control; values are per cent of control; settings: NCI60, 48 h
NCI-H522 = assay: Growth inhibition of human NCI-H522 cells incubated for 48 hrs by sulforhodamine B assay; assay type: functional; settings: NCI-H522, 48 h
Hs-578T = assay: Growth inhibition of human Hs 578T cells incubated for 48 hrs by sulforhodamine B assay; assay type: functional
SK-MEL-5 = assay: Growth inhibition of human SK-MEL-5 cells incubated for 48 hrs by sulforhodamine B assay; assay type: functional; settings: SK-MEL-5, 48 h
CCRF-CEM = assay: Growth inhibition of human CCRF-CEM cells incubated for 48 hrs by sulforhodamine B assay; assay type: functional
KM12 = assay: Growth inhibition of human KM12 cells incubated for 48 hrs by sulforhodamine B assay; assay type: functional; settings: KM12, 48 h
K562 = assay: Growth inhibition of human K562 cells incubated for 48 hrs by sulforhodamine B assay; assay type: functional; settings: K562, 48 h
HCT-116 = assay: Growth inhibition of human HCT116 cells incubated for 48 hrs by sulforhodamine B assay; assay type: functional; settings: HCT-116, 48 h
SF-268 = assay: Growth inhibition of human SF268 cells incubated for 48 hrs by sulforhodamine B assay; assay type: functional; settings: SF-268, 48 h
Malme-3M = assay: Growth inhibition of human MALME-3M cells incubated for 48 hrs by sulforhodamine B assay; assay type: functional
SK-MEL-28 = assay: Growth inhibition of human SK-MEL-28 cells incubated for 48 hrs by sulforhodamine B assay; assay type: functional; settings: SK-MEL-28, 48 h
NCI-H226 = assay: Growth inhibition of human NCI-H226 cells incubated for 48 hrs by sulforhodamine B assay; assay type: functional; settings: NCI-H226, 48 h
A549 = assay: Growth inhibition of human A549/ATCC cells incubated for 48 hrs by sulforhodamine B assay; assay type: functional; settings: A549, 48 h
SW-620 = assay: Growth inhibition of human SW620 cells incubated for 48 hrs by sulforhodamine B assay; assay type: functional; settings: SW-620, 48 h
WI-38 = assay: Cytotoxicity against human WI38 cells assessed as reduction in cell viability after 24 hrs by MTT assay; assay type: cell-based; settings: WI-38, 24 h
U-251 = assay: Growth inhibition of human U251 cells incubated for 48 hrs by sulforhodamine B assay; assay type: functional; settings: U-251, 48 h
OVCAR-5 = assay: Growth inhibition of human OVCAR5 cells incubated for 48 hrs by sulforhodamine B assay; assay type: functional; settings: OVCAR-5, 48 h
HL-60(TB) = assay: Growth inhibition of human HL-60(TB) cells incubated for 48 hrs by sulforhodamine B assay; assay type: functional; settings: HL-60, 48 h
[2] = Antioxidant activity assessed as superoxide dismutase-like activity by measuring inhibition of superoxide radical anion production at 2 uM by NBT reduction assay relative to control; assay type: functional
HCC 2998 = assay: Growth inhibition of human HCC2998 cells incubated for 48 hrs by sulforhodamine B assay; assay type: functional; settings: HCC 2998, 48 h
CAKI-1 = assay: Growth inhibition of human Caki1 cells incubated for 48 hrs by sulforhodamine B assay; assay type: functional; settings: CAKI-1, 48 h
IGROV-1 = assay: Growth inhibition of human IGROV1 cells incubated for 48 hrs by sulforhodamine B assay; assay type: functional; settings: IGROV-1, 48 h
DU-145 = assay: Growth inhibition of human DU145 cells incubated for 48 hrs by sulforhodamine B assay; assay type: functional; settings: DU-145, 48 h
BT-549 = assay: Growth inhibition of human BT549 cells incubated for 48 hrs by sulforhodamine B assay; assay type: functional; settings: BT-549, 48 h
NCI-H322M = assay: Growth inhibition of human NCI-H322M cells incubated for 48 hrs by sulforhodamine B assay; assay type: functional
SN12C = assay: Growth inhibition of human SN12C cells incubated for 48 hrs by sulforhodamine B assay; assay type: functional
ACHN = assay: Growth inhibition of human ACHN cells incubated for 48 hrs by sulforhodamine B assay; assay type: functional
SF-539 = assay: Growth inhibition of human SF539 cells incubated for 48 hrs by sulforhodamine B assay; assay type: functional; settings: SF-539, 48 h
SNB-19 = assay: Growth inhibition of human SNB19 cells incubated for 48 hrs by sulforhodamine B assay; assay type: functional; settings: SNB-19, 48 h
LOX IMVI = assay: Growth inhibition of human LOXIMVI cells incubated for 48 hrs by sulforhodamine B assay; assay type: functional
NCI/ADR-RES = assay: Growth inhibition of human NCI/ADR-RES cells incubated for 48 hrs by sulforhodamine B assay; assay type: functional
NCI-H460 = assay: Growth inhibition of human NCI-H460 cells incubated for 48 hrs by sulforhodamine B assay; assay type: functional; settings: NCI-H460, 48 h
SK-MEL-2 = assay: Growth inhibition of human SK-MEL-2 cells incubated for 48 hrs by sulforhodamine B assay; assay type: functional; settings: SK-MEL-2, 48 h
OVCAR-4 = assay: Growth inhibition of human OVCAR4 cells incubated for 48 hrs by sulforhodamine B assay; assay type: functional; settings: OVCAR-4, 48 h
OVCAR-3 = assay: Growth inhibition of human OVCAR3 cells incubated for 48 hrs by sulforhodamine B assay; assay type: functional; settings: OVCAR-3, 48 h
MCF7 = assay: Growth inhibition of human MCF7 cells incubated for 48 hrs by sulforhodamine B assay; assay type: functional; settings: MCF7, 48 h
UO-31 = assay: Growth inhibition of human UO31 cells incubated for 48 hrs by sulforhodamine B assay; assay type: functional; settings: UO-31, 48 h

Q: Which results are given for N=C(N)c1ccc(-c2ccc(-c3ccc(Cl)cc3)s2)cc1F?
A: GI50 (MDA-MB-468): 215 nM; GI50 (RXF 393): 187 nM; GI50 (OVCAR-8): 983 nM; GI50 (HT-29): 203 nM; GI50 (SK-OV-3): 1140 nM; IC50 (WISH): 64200 nM; GI50 (HOP-62): 1480 nM; GI50 (NCI-H23): 1150 nM; GI50 (TK-10): 1740 nM; GI50 (UACC-257): 1620 nM; GI50 (SR): 218 nM; growth percent at 10 µM [1]: -67.3%; GI50 (NCI-H522): 194 nM; GI50 (Hs-578T): 726 nM; GI50 (SK-MEL-5): 1270 nM; GI50 (CCRF-CEM): 194 nM; GI50 (KM12): 226 nM; GI50 (K562): 272 nM; GI50 (HCT-116): 171 nM; GI50 (SF-268): 197 nM; GI50 (Malme-3M): 490 nM; GI50 (SK-MEL-28): 205 nM; GI50 (NCI-H226): 2030 nM; GI50 (A549): 217 nM; GI50 (SW-620): 186 nM; IC50 (WI-38): 53100 nM; GI50 (U-251): 203 nM; GI50 (OVCAR-5): 248 nM; GI50 (HL-60(TB)): 212 nM; inhibition [2]: 59%; GI50 (HCC 2998): 156 nM; GI50 (CAKI-1): 173 nM; GI50 (IGROV-1): 611 nM; GI50 (DU-145): 430 nM; GI50 (BT-549): 1500 nM; GI50 (NCI-H322M): 386 nM; GI50 (SN12C): 517 nM; GI50 (ACHN): 203 nM; GI50 (SF-539): 206 nM; GI50 (SNB-19): 341 nM; GI50 (LOX IMVI): 205 nM; GI50 (NCI/ADR-RES): 361 nM; GI50 (NCI-H460): 207 nM; GI50 (SK-MEL-2): 1500 nM; GI50 (OVCAR-4): 224 nM; GI50 (OVCAR-3): 268 nM; GI50 (MCF7): 168 nM; GI50 (UO-31): 1720 nM

Q: With N=C(N)c1ccc(-c2ccc(-c3ccccc3)s2)cc1F as the compound, how does the GI50 (MDA-MB-468) read?
A: The GI50 was 2040 nM.

Q: What about the GI50 (RXF 393) of the same compound?
A: Its GI50 is 7010 nM.

Q: And the GI50 (OVCAR-8)?
A: Its GI50 is 11300 nM.

Q: And the GI50 (HT-29)?
A: The GI50 was 3400 nM.

Q: And the GI50 (SK-OV-3)?
A: Its GI50 is 10200 nM.

Q: And the IC50 (WISH)?
A: The IC50 was 82200 nM.

Q: And the GI50 (HOP-62)?
A: Its GI50 is 10500 nM.

Q: What about the GI50 (NCI-H23) of the same compound?
A: The GI50 was 11600 nM.

Q: What about the GI50 (TK-10) of the same compound?
A: The GI50 was 10700 nM.

Q: And the GI50 (UACC-257)?
A: The GI50 was 2180 nM.

Q: What about the GI50 (SR) of the same compound?
A: Its GI50 is 3110 nM.

Q: What about the growth percent at 10 µM [1] of the same compound?
A: Its growth percent at 10 µM is -79.2%.

Q: And the GI50 (NCI-H522)?
A: The GI50 was 6800 nM.

Q: And the GI50 (Hs-578T)?
A: The GI50 was 10900 nM.

Q: And the GI50 (SK-MEL-5)?
A: The GI50 was 3430 nM.

Q: What about the GI50 (CCRF-CEM) of the same compound?
A: The GI50 was 3200 nM.

Q: What about the GI50 (KM12) of the same compound?
A: Its GI50 is 4410 nM.

Q: And the GI50 (K562)?
A: Its GI50 is 3970 nM.

Q: And the GI50 (HCT-116)?
A: The GI50 was 3260 nM.

Q: What about the GI50 (SF-268) of the same compound?
A: Its GI50 is 11200 nM.

Q: What about the GI50 (Malme-3M) of the same compound?
A: The GI50 was 3250 nM.

Q: And the GI50 (SK-MEL-28)?
A: Its GI50 is 8230 nM.

Q: And the GI50 (NCI-H226)?
A: Its GI50 is 12900 nM.

Q: What about the GI50 (A549) of the same compound?
A: Its GI50 is 5100 nM.

Q: What about the GI50 (SW-620) of the same compound?
A: The GI50 was 4050 nM.

Q: What about the IC50 (WI-38) of the same compound?
A: Its IC50 is 91500 nM.

Q: What about the GI50 (U-251) of the same compound?
A: Its GI50 is 4700 nM.

Q: And the GI50 (OVCAR-5)?
A: Its GI50 is 10900 nM.

Q: And the GI50 (HL-60(TB))?
A: Its GI50 is 2140 nM.

Q: And the inhibition [2]?
A: The inhibition was 54.5%.

Q: What about the GI50 (HCC 2998) of the same compound?
A: The GI50 was 2450 nM.

Q: What about the GI50 (CAKI-1) of the same compound?
A: Its GI50 is 6790 nM.

Q: What about the GI50 (IGROV-1) of the same compound?
A: Its GI50 is 5290 nM.

Q: And the GI50 (DU-145)?
A: The GI50 was 11300 nM.

Q: What about the GI50 (BT-549) of the same compound?
A: Its GI50 is 10700 nM.

Q: And the GI50 (NCI-H322M)?
A: Its GI50 is 6000 nM.

Q: And the GI50 (SN12C)?
A: Its GI50 is 8010 nM.

Q: And the GI50 (ACHN)?
A: Its GI50 is 6560 nM.

Q: What about the GI50 (SF-539) of the same compound?
A: Its GI50 is 4740 nM.

Q: What about the GI50 (SNB-19) of the same compound?
A: Its GI50 is 11700 nM.

Q: And the GI50 (LOX IMVI)?
A: Its GI50 is 2580 nM.

Q: And the GI50 (NCI/ADR-RES)?
A: The GI50 was 14100 nM.

Q: What about the GI50 (NCI-H460) of the same compound?
A: Its GI50 is 3690 nM.

Q: What about the GI50 (SK-MEL-2) of the same compound?
A: The GI50 was 4910 nM.

Q: And the GI50 (OVCAR-4)?
A: The GI50 was 10400 nM.

Q: And the GI50 (OVCAR-3)?
A: The GI50 was 8900 nM.

Q: And the GI50 (MCF7)?
A: Its GI50 is 3170 nM.

Q: And the GI50 (UO-31)?
A: Its GI50 is 2680 nM.
